Data from ChEMBL document CHEMBL5126537, “Influenza-existing drugs and treatment prospects” (Eur J Med Chem, 2022).

How the values were obtained:
Influenza A virus = assay: Antiviral activity against Influenza A virus A/PR/8/34 (H1N1) infected in MDCK cells assessed as inhibition of viral entry preincubated for 1 hr followed by infection in MDCK cells measured after 1 hr by focus forming assay; type: functional, organism-based
[1] = Elimination half life in INH dosed mouse lungs; type: ADME, organism-based, Lung; settings: in vivo, inhaled_or_intranasal
[2] = Cytotoxicity against MDCK cells; type: toxicity, cell-based, Canis lupus familiaris; settings: dog

Structure (SMILES): COc1cc(OC)c2c(=O)c(O)c(-c3ccc(OC)c(OC)c3)oc2c1
- IC50 (Influenza A virus): 36 µM

Structure (SMILES): CCCCCCCC(=O)OC[C@@H](O)[C@@H](OC)[C@@H]1OC(C(=O)O)=C[C@H](NC(=N)N)[C@H]1NC(C)=O [LANINAMIVIR OCTANOATE]
- t1/2 [1]: 41 h

Structure (SMILES): NC(=O)c1nc(F)c[nH]c1=O [FAVIPIRAVIR]
- CC50 [2]: > 2000 µg/mL
